Data: patent US11532406B2, “High specific activity preparation of F-18 tetrafluoroborate” (Mayo Foundation for Medical Education and Research, priority 2016, dated 2022)

Experiments:
NIS = settings: reference (21); read-out: IC50 for inhibition of iodine uptake by NIS in thyroid; cited from earlier work
[1] = Stability of ^18F-TFB (radio-TLC and anion chromatography HPLC); type: physicochemical; settings: NaBF4 stock solution stored for 7 month at room temperature
Method: The product ^18F-TFB was analyzed for radiochemical purity by both radio-TLC (MeOH, Rf=0.8-0.85) and anion chromatography HPLC with radioactivity detector (Dionex IC-2100, AS19 analytical column: 4.7×150 mm; eluent: 35 mM KOH; sample volume: 25.L; flow rate: 1 mL/min; retention times: 7.6 min for ^18F-TFB, […]). Chemical purity and specific activity were analyzed by anion chromatography HPLC (retention times: 3.5 min for fluoride, 4.3 min for chloride, and 7.6 min for BF4—). Residual organic solvents were analyzed by GC (helium carrier gas flow at 10 cc/min through a MXTWAX column (Restek, Bellefonte, Pa., 0.53 mm ID, 30 m length)).
After the synthesis, a sample was diluted with water for the analysis. With the eluent of methanol on silica gel plate, purities of >98% were obtained on the radio-TLC scanner.
^18F-TFB was prepared and formulated in sterile 0.9% NaCl under cGMP conditions as previously described (12). Decay-corrected radiochemical yields of 32±2% and radiochemical purities (RCPs) >98% were obtained. Specific radioactivity of 2.2±0.9 GBq/μmol was achieved from starting ^18F-fluoride radioactivity of 20-31 GBq. In vitro RCP remained >96% up to 8 h at room temperature.

Row | Compound | IC50 (NIS) [nM] | TFB decayed (HPLC) [1] [%]
1 | F[B-](F)(F)F [TFB, tetrafluoroborate] | 100 to 1000 | –
2 | F[B-](F)(F)F.[Na+] [NaBF4, reference compound] | – | 50
